Test results published in article PMC6838683, “Discovery of Human Signaling Systems: Pairing Peptides to G Protein-Coupled Receptors” (Cell, 2019).
Residues, ends and D or L forms follow the SMILES beside them. No end group written: not given here.

Key:
[1] = molecular target: T1, GPR139 (Homo sapiens, UniProt Q6DWJ6); experiment: Repeat of proposed literature pairing (mass redistribution and/or internalization); format: cell-based; conditions: GPR139; mean, SEM and n; read-out: pEC50, DMR (peak) (converted)
T1 construct: hIL-2Ra signal peptide (N); expressed in transfected cells
T1 sequence (Q6DWJ6 2-353 limits assumed): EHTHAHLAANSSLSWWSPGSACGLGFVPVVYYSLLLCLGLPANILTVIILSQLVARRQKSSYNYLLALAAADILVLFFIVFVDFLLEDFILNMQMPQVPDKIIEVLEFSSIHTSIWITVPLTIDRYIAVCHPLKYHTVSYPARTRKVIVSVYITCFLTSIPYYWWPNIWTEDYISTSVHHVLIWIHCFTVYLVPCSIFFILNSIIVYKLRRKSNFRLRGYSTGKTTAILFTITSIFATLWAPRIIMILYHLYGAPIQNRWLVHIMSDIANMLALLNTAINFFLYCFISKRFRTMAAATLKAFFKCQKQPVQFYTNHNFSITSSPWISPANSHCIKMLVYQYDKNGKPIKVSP
Text: DMR assays provide a single integrated readout of ligand-dependent cellular response, utilizing an optical biosensor in specialized microplates to detect wavelength shifts of reflected light as it passes through the biosensor and the lower portion of the cell (∼150-200 nm). As a signal pathway agnostic approach, DMR assays are well-suited to the study of GPCRs ([Fang et al., 2008], [Schröder et al., 2011]). The mass redistribution response (Δ picometer (pm)) likely reflects a number of intracellular events, including cytoskeletal rearrangement, protein trafficking and receptor internalization. Orphan receptor-expressing cells were gently washed twice with assay buffer (HBSS with 1 mM CaCl2, 1 mM MgCl2, 20 mM HEPES, 0.01% pluronic F-68, pH 7.4) containing 0.1% DMSO and cells were equilibrated for 90 min at 22°C in the EPIC Benchtop (BT) System (Corning) to establish a stable DMR signal. After 3-5 min baseline recordings, peptides (10 μM) were added in duplicate wells using an electronic 384-channel Viaflo pipette (Integra Biosciences, Switzerland) and DMR responses were measured for 60 min at 22°C. 100 nM norepinephrine was included as an internal assay control to assess the cellular DMR response via endogenously-expressed adrenoceptors in the TREx 293 cells. Real-time data were processed using the BT to column converter MS-Excel macro (Corning) and analyzed in GraphPad Prism 7.0. DMR recordings in peptide screening experiments were buffer and solvent corrected and the area under the curve (AUC) was quantified. For subsequent validation experiments, peptides were diluted in assay buffer containing 0.1% DMSO and DMR assays were performed as above. […] Data represent mean ± standard error of the mean (SEM) from at least 3 biologically independent experiments.
A TR-FRET real-time internalization assay was used to examine peptide-dependent changes in orphan receptor localization as described previously ([Foster and Bräuner-Osborne, 2018]). Surface-expressed SNAP-tagged receptors were labeled with a cell-impermeable luminescent terbium cryptate (100 nM SNAP Lumi4-Tb; Cisbio, France) for 1 hr at 37°C. Cells were washed to remove excess terbium and incubated with fluorescein-O-acetic acid (100 μM; Sigma Aldrich) for 5 min at 37°C. Peptides were added as for DMR assays, and internalization responses were recorded for 60 min at 37°C using an EnVision 2104 Multimode plate reader (PerkinElmer). 100 nM GLP-1 was used as a positive control for SNAP-GLP1R internalization. Real-time internalization responses were calculated based on TR-FRET (excitation 340 nm; emission 520 nm and 615 nm), and were expressed as the ratio between donor (terbium) and acceptor (fluorescein) emission. For peptide screening analysis (both DMR and internalization assays), we calculated the area under the curve from the real-time traces. […] Validation experiments for receptor internalization were performed as above. Internalization data was processed in MS-Excel and area under the curve was used to generate concentration-response curves using GraphPad Prism 7.0. Data represent mean ± standard error of the mean (SEM) from at least 3 biologically independent experiments.

[2] = molecular target: T1, GPR139; experiment: IP1 accumulation; format: cell-based; conditions: mean, SEM and n, read-out: pEC50, IP1 (converted)
Text: Supplement mmc7.xlsx, sheet "Peptide validation data" | column: Emax; pEC50

[3] = molecular target: T2, GPR1 (Homo sapiens, UniProt P46091); experiment: Dynamic mass redistribution (DMR), validation; format: cell-based; parameters: host or cells: HTLA cells (HEK293-derived)
T2 sequence (P46091 1-355): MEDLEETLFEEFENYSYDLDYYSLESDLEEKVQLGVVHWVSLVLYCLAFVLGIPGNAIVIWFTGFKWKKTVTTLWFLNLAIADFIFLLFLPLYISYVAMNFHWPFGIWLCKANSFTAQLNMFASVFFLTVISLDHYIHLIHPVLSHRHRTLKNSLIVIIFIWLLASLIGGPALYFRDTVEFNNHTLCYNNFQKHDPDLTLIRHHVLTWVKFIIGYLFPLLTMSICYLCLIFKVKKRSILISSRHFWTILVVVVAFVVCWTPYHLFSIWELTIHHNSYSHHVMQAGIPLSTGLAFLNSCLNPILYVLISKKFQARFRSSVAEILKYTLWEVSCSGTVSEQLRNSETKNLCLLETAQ
Text: (§1) Supplement mmc7.xlsx, sheet "Peptide validation data" | column: Comment

[4] = molecular target: T2, GPR1; experiment: β-arrestin recruitment (Tango), validation; format: cell-based; parameters: host or cells: HTLA cells (HEK293-derived)
[5] = molecular target: T2, GPR1; experiment: Real-time receptor internalization, validation; format: cell-based; parameters: host or cells: HTLA cells (HEK293-derived)
Text: as §1

[6] = molecular target: T2, GPR1; experiment: β-arrestin recruitment (PathHunter); format: cell-based; conditions: for Emax, PathHunter (fold over basal) / pEC50, PathHunter (fold over basal): GPR1, mean, SEM and n
Method: PathHunter eXpress Assays (DiscoverX) were performed in 384-well format according to the manufacturer’s recommendations. GPR1 cells were incubated with peptides for 90 min and luminescence measured using an EnSpire 2300 Multimode plate reader (PerkinElmer).

[7] = tested on: human GPCRs; parameters: method as in Guide to Pharmacology database; conditions: receptor gasr_human (CCKBR, P32239); max reported value; ref Guide to Pharmacology database; cited from earlier work
Text: Supplement mmc1.xlsx, sheet "HumanGPCRLigands" | column: pKi_value; pKd_value; pEC50_value; pIC50_value

[8] = tested on: NPFF2; experiment: β-arrestin recruitment (Tango), known peptide receptors; format: cell-based, human; conditions: endogenous ligand(s) included in peptide library
Text: Supplement mmc6.xlsx, sheet "Peptide GPCR controls" | column: Confirmed?

[9] = molecular target: T3, bombesin receptor 3 (human) (UniProt P32247)
T3 sequence: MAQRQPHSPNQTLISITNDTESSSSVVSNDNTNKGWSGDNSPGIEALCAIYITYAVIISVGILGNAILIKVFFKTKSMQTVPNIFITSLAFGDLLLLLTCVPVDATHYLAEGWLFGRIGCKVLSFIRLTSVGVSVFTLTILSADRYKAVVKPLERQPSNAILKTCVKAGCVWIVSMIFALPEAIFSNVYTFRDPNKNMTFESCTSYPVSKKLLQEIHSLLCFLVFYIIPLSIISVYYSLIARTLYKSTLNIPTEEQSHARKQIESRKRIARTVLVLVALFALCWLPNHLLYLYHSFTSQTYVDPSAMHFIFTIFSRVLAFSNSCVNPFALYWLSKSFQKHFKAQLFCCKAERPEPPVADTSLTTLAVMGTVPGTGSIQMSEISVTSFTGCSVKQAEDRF

| Molecule | Comment on response, DMR (AUC); Emax and pEC50 n.d. [3] | Emax, Tango (fold over basal) ([4]; GPR1, mean, SEM and n) | Comment on response, Internalization (AUC); Emax and pEC50 n.d. [5] | Emax, PathHunter (fold over basal) [6] [fold over basal] | pEC50, PathHunter (fold over basal) [6] | other results |
| --- | --- | --- | --- | --- | --- | --- |
| CSCC[C@H](NC(=O)[C@H](CO)NC(=O)[C@H](Cc1ccc(O)cc1)NC(=O)[C@@H](N)CO)C(=O)N[C@@H](CCC(=O)O)C(=O)N[C@@H](Cc1cnc[nH]1)C(=O)N[C@@H](Cc1ccccc1)C(=O)N[C@@H](CCCNC(=N)N)C(=O)N[C@@H](Cc1c[nH]c2ccccc12)C(=O)NCC(=O)N[C@@H](CCCCN)C(=O)N1CCC[C@H]1C(=O)N[C@H](C(=O)NCC(=O)N[C@@H](CCCCN)C(=O)N[C@@H](CCCCN)C(=O)N[C@@H](CCCNC(=N)N)C(=O)N[C@@H](CCCNC(=N)N)C(=O)N1CCC[C@H]1C(=O)N[C@H](C(=O)N[C@@H](CCCCN)C(=O)N[C@H](C(=O)N[C@@H](Cc1ccc(O)cc1)C(=O)N1CCC[C@H]1C(=O)N[C@@H](CC(N)=O)C(=O)NCC(=O)N[C@@H](C)C(=O)N[C@@H](CCC(=O)O)C(=O)N[C@@H](CC(=O)O)C(=O)N[C@@H](CCC(=O)O)C(=O)N[C@@H](CO)C(=O)N[C@@H](C)C(=O)N[C@@H](CCC(=O)O)C(=O)N[C@@H](C)C(=O)N[C@@H](Cc1ccccc1)C(=O)N1CCC[C@H]1C(=O)N[C@@H](CC(C)C)C(=O)N[C@@H](CCC(=O)O)C(=O)N[C@@H](Cc1ccccc1)C(=O)O)C(C)C)C(C)C)C(C)C [Corticotropin, ACTH] (H-SYSMEHFRWGKPVGKKRRPVKVYPNGAEDESAEAFPLEF-OH) |  |  |  |  |  | EC50 [1]: 0.0661 µM; EC50 [2]: 1.15 µM |
| CSCC[C@H](NC(=O)[C@H](Cc1c[nH]c2ccccc12)NC(=O)CNC(=O)[C@H](Cc1ccc(O)cc1)NC(=O)[C@H](C)NC(=O)[C@H](CCC(=O)O)NC(=O)[C@H](CCC(=O)O)NC(=O)[C@H](CCC(=O)O)NC(=O)[C@H](CCC(=O)O)NC(=O)[C@H](CCC(=O)O)NC(=O)[C@H](CC(C)C)NC(=O)[C@H](Cc1c[nH]c2ccccc12)NC(=O)[C@@H]1CCCN1C(=O)CNC(=O)[C@@H](N)CCC(N)=O)C(=O)N[C@@H](CC(=O)O)C(=O)N[C@@H](Cc1ccccc1)C(N)=O [Peptide 118, Gastrin-17, reference compound] | No response; known CCK receptor agonist | 9.8 | No response; known CCK receptor agonist | 3.5 | 5.24 | EC50 ([4]; HTLA cells transiently transfected, overnight stimulation, luciferase, mean ± SEM of 3-4 independent experiments in triplicate, read-out: pEC50, β-arrestin recruitment (Tango), GPR1 (converted)): > 10 µM; EC50 ([4]; pEC50, Tango (fold over basal), GPR1, mean, SEM and n): 102 µM; EC50 ([6]; PathHunter eXpress GPR1 cells, 90 min, luminescence, mean ± SEM of 3-4 independent experiments in triplicate, read-out: pEC50, β-arrestin recruitment (PathHunter), GPR1 (converted)): 6.31 µM |
| KAPSGRMSIVKNLQNLDPSHRISDRDYMGWMDF [Peptide 194, cholecystokinin (CCK-33), reference compound] | No response; Known CCK receptor agonist | 15.0 | No response; Known CCK receptor agonist | 5.7 | 8.01 | pIC50_value [7]: 8.8; pEC50, Tango (fold over basal) ([4]; GPR1, mean, SEM and n): 5.28 |
| KRSFSGFGSPLDRLSAGSVDHK [Processed Osteocrin_(-2-19)] | No response | 14.4 | No response | 8.0 | 6.18 | pEC50, Tango (fold over basal) ([4]; GPR1, mean, SEM and n): 5.60 |
| Neuropeptide RFRP-1 (MPHSFANLPLRF-NH2) |  |  |  |  |  | Confirmed? (confirmation of b-arrestin recruitment) [8]: No |
| Neuropeptide SF (SQAFLFQPQRF-NH2) |  |  |  |  |  | Confirmed? (confirmation of b-arrestin recruitment) [8]: No |
| GNLWATGHFM [neuromedin B] |  |  |  |  |  | pEC50 of neuromedin B responses in G (q/11) signaling assays (IP1 generation) [9]: 6.39 pEC50; pEC50 of neuromedin B responses in mass redistribution [9]: 7.43 pEC50 |
